The values that follow come from PMC7376718, “Flavonoids isolated from the South African weed Chromolaena odorata (Asteraceae) have pharmacological activity against uropathogens” (BMC Complementary Medicine and Therapies, 2020).

For one experiment, the system named is E. coli. Put plainly: Cell adhesion to BSA-coated polystyrene surface. It is filed as cell-based, Escherichia coli. Particulars: 1 mg/mL, polystyrene microplate. As to the method:
(§1) Anti-adhesion activity of isolated compounds was determined using the method of Namasivayam and Vivek with slight modification. To a sterile 96-well flat-bottomed polystyrene microtititre plate, 150 μL of freshly prepared 1% lyophilized powdered globular protein BSA, dissolved in water was added to all wells except for the wells allocated for media only. The plates were incubated for 30 min at 30 °C. Following incubation the wells were washed three times with PBS. To the wells, 50 μL of bacterial cultures equivalent to 1 × 10^6 cfu/mL read at 590 nm, prepared from overnight cultures were added. […] The seeded microtitre plates were incubated for 24 h at 37 °C. Non-adhered cells were washed five times with PBS at room temperature. Adhered cells were stained by the addition of 50 μL of 0.1% crystal violet and further incubation for a further 30 min at room temperature. Afterwards, wells were washed with sterile distilled water to remove excess stain followed by the addition of 10 μL of absolute ethanol to fix the adhered cells. Finally, 50 μL of 0.2% Triton X was added to the wells to lyse the cells and the absorbance was read at 570 nm using a microplate reader. Percentage adherence inhibition was calculated using the formula above.

Experiment [1] concerns S. aureus, E. coli (1), E. coli (2), E. coli (3), K. pneumoniae. Put plainly: Mean MIC over the bacterial strains. It is filed as cell-based. Particulars: mean over the five bacterial strains of Table 3. An excerpt: (§2) The cultures used were Escherichia coli (American Type Culture Collection, ATCC 25922) labelled as 1, E. coli isolates (B1989/17 and B1962/17) labelled as 2 and 3 from equine urine, collected from the Department of Veterinary Tropical Diseases, Faculty of Veterinary Science, University of Pretoria, South Africa, Klebsiella pneumoniae isolate from commercial chicken eggs, Enterococcus faecalis (ATCC 29212), Pseudomonas aeruginosa (ATCC 27853), Staphylococcus aureus (ATCC 29213), Candida albicans from a Gouldian finch, Aspergillus fumigatus from a chicken and Cryptococcus neoformans from a cheetah. These microbial strains were maintained on MHA or SDA for bacteria and fungi respectively, while the isolates were maintained on blood agar.
(§3) Ten mg/mL of each fraction and 1 mg/mL of isolated compounds were prepared in 10% DMSO and tested against S. aureus, E. coli, K. pneumoniae, E. faecalis, P. aeruginosa, C. albicans, C. neoformans and A. fumigatus. Cultures were prepared by inoculating each microbial strain from prepared agar plates into sterilized MHB for bacterial and SDB for fungi in sterile McCartney bottles respectively. The inoculums were placed in an orbital shaker incubator. Bacterial strains were incubated at 37 °C for 18 h. Each bacterial culture was diluted in fresh MHB and the absorbance was measured at a wavelength of 560 nm using a microplate reader (Epoch Biotek). The readings were compared to a McFarland standard No. 1 correlating to approximately 3 × 10^8 cfu/mL). For fungi strains, cultures were incubated at 30 °C for 24 h (C. albicans), 72 h (C. neoformans) and 120 h (A. fumigatus) respectively. The resultant cells and spores were washed with sterile normal saline and absorbance was measured at a wavelength of 560 nm and turbidity was adjusted to a McFarland standard 1.This was further diluted in a 1:10 ratio in SDB to a turbidity of 5 × 10^5 cfu/mL. These diluted cultures (bacterial and fungi) were used for the screening following the serial microdilution method of Eloff.

Experiment [2] relates to E. coli (B1962/17) isolate from equine urine, E. coli (3). As to the kind of experiment: MIC, serial microdilution with INT. It is filed as cell-based. Particulars: Escherichia coli, read-out: Minimum inhibitory concentration.
Source text: as §2, §3

Experiment [3] relates to Aspergillus fumigatus from a chicken. Put plainly: MIC, serial microdilution with INT. The class given is cell-based. Particulars: Aspergillus fumigatus, read-out: Minimum inhibitory concentration.
Source text: as §2, §3

Experiment [4] relates to Staphylococcus aureus (ATCC 29213). As to the kind of experiment: MIC, serial microdilution with INT. The class given is cell-based. Particulars: ATCC29213, S. aureus, read-out: Minimum inhibitory concentration.
Source text: as §2, §3
Background: Broth dilution looks for growth in wells or tubes with falling amounts of substance.

The subject of experiment [5] is Escherichia coli (ATCC 25922), E. coli (1). Put plainly: MIC, serial microdilution with INT. It is filed as cell-based. Conditions: Escherichia coli, ATCC25922, E. coli (1), read-out: Minimum inhibitory concentration.
Source text: as §2, §3

Experiment [6] relates to E. coli (B1989/17) isolate from equine urine, E. coli (2). Put plainly: MIC, serial microdilution with INT. The class given is cell-based. Conditions: Escherichia coli, read-out: Minimum inhibitory concentration.
Source text: as §2, §3

The subject of experiment [7] is Cryptococcus neoformans from a cheetah. Put plainly: MIC, serial microdilution with INT. The class given is cell-based. Conditions: C. neoformans, read-out: Minimum inhibitory concentration.
Source text: as §2, §3

Experiment [8] has as its system Klebsiella pneumoniae isolate from commercial chicken eggs. As to the kind of experiment: MIC, serial microdilution with INT. It is filed as cell-based. Conditions: Klebsiella pneumoniae, K. pneumoniae; read-out: Minimum inhibitory concentration.
Source text: as §2, §3

Experiment [9] deals with S. aureus (ATCC 29213) biofilm. Put plainly: Biofilm inhibition, crystal violet staining. The class given is cell-based, Staphylococcus aureus. Conditions: for Biofilm inhibition (verdict in words): planktonic (0 h) and biofilm (24 h) stages, 1 mg/mL and MIC level. As to the method:
(§4) A single colony of E. coli (ATCC 25922) and S. aureus (ATCC 29213), strains were each inoculated into TSB and incubated for 24 h. The biofilm inhibition assay was carried out by adopting the method described by […] et al.. Two stages; planktonic, T0 and biofilm formation, T24 were investigated against the 24 h prepared bacterial cultures. One hundred microliters of each standardised bacterial culture (OD590 1 × 10^6 cfu/mL) was aliquoted into wells of a sterile flat bottomed 96-well microplate. Plates prepared for 24 h biofilm formation were immediately sealed with an adhesive sealer, placed in the incubator and incubated for 24 h at 37 °C. […] To the plates prepared for 0 h, the samples were added immediately. Wells containing cultures only, as well as acetone and sterile distilled water used to prepare the samples were included as controls. All plates after the addition of samples were sealed and incubated for 24 h to enable the samples to react with the biofilms. The incubated plates were washed with sterile distilled water three to four times after incubation to remove the unattached cells and were placed in the oven at 60 °C for 45 min. To all wells, 100 μL of 1% crystal violet dissolved in distilled water was added and plates were incubated for 15 min at room temperature after which the plates were washed again with sterile distilled water to remove unabsorbed stain. One hundred and twenty-five microliters of 100% ethanol was added to destain the wells. From the wells, 100 μL of the destaining solution was transferred to a new plate and semi-quantitative assessment of biofilm formation was done by measuring absorbance at 590 nm using SoftMax […] software on a microplate reader (SpectraMax M2). The mean absorbance of the samples was determined, and percentage inhibition was obtained using the equation below: percentage inhibiton=mean of culture control-mean of sample/mean of culture controlx100

The test system of another experiment is S. aureus. As to the kind of experiment: Cell adhesion to BSA-coated polystyrene surface. The class given is cell-based, Staphylococcus aureus. Conditions: 1 mg/mL, polystyrene microplate. As to the method:
as §1

Experiment [10] has as its system E. coli (ATCC 25922) biofilm. Put plainly: Biofilm inhibition, crystal violet staining. The class given is cell-based, Escherichia coli. Particulars: planktonic (0 h) and biofilm (24 h) stages, 1 mg/mL and MIC level. Here is the method:
as §4, with “All plates after the addition of samples were sealed and incubated for 24 h to enable the samples to react with the biofilms. The incubated plates were washed with sterile distilled water three to four times after incubation to remove the unattached cells and were placed in the oven at 60 °C for 45 min. To all wells, 100 μL of 1% crystal violet dissolved in distilled water was added and plates were incubated for 15 min at room temperature after which the plates were washed again with sterile distilled water to remove unabsorbed stain. One hundred and twenty-five microliters of 100% ethanol was added to destain the wells.” left out

Values after ≈ are worked out from the molar mass of the structure shown. Where two headings read alike, the source gives them in different places. A value given as a limit tells only on which side of the number the result lay.

Turning to `COc1ccc(C2CC(=O)c3c(OC)cc(OC)cc3O2)cc1` (racemic) [Compound 2, (±)-4′,5,7-trimethoxy flavanone], the “Adherence inhibition (verdict in words)” value with E. coli and in the experiment on S. aureus was “weak” in each case. For the same molecule, the MIC was 50 ± 40 µg/mL (≈ 159 µM) in experiment [1]; 31 µg/mL (≈ 98.6 µM) in experiment [2]; 16 µg/mL (≈ 50.9 µM) in experiment [3] (48 h); 125 µg/mL (≈ 398 µM) in [3] (72 h); greater than 2500 µg/mL in experiment [3] (120 h); 31 µg/mL (≈ 98.6 µM) in experiment [4]. Also, the MIC in [5] came out at 31 µg/mL (≈ 98.6 µM); in [6], 31 µg/mL (≈ 98.6 µM); in experiment [7] (48 h, 48 h) it was 16 µg/mL (≈ 50.9 µM); in experiment [7] (72 h, 72 h), 125 µg/mL (≈ 398 µM); in [8], 125 µg/mL (≈ 398 µM). Also, the “Mean MIC” value in experiment [1] turned out to be 50 µg/mL. Moreover, the “Biofilm inhibition (verdict in words)” value in experiment [9] was “good and poor inhibition and good inhibitory activity”; in experiment [10], “good and good activity and good inhibitory activity”.
For `COc1ccc(-c2oc3cc(OC)cc(O)c3c(=O)c2OC)cc1` [Compound 3, 5-hydroxy-3,7,4′-trimethoxyflavone], the “Adherence inhibition (verdict in words)” value in the experiment with E. coli and in the experiment on S. aureus was “weak” each time. In addition, the MIC in experiment [1] is 140 µg/mL (≈ 426 µM); in experiment [2], 250 µg/mL (≈ 761 µM); in experiment [3] (48 h), 31 µg/mL (≈ 94.4 µM); in experiment [3] (72 h), 250 µg/mL (≈ 761 µM); in [3] (120 h) it was greater than 2500 µg/mL; in [4] it was 16 µg/mL (≈ 48.7 µM). Also, the MIC in experiment [5] is 63 µg/mL (≈ 192 µM); in experiment [6], 250 µg/mL (≈ 761 µM); in [7] (48 h, 48 h), greater than 250 µg/mL; in [7] (72 h, 72 h), greater than 250 µg/mL; in [8], 125 µg/mL (≈ 381 µM). The Biofilm inhibition entry in experiment [9] (at 24 h) is recorded as “higher than 50%”. Besides, the “Biofilm inhibition (verdict in words)” value was “good and good inhibitory activity” in experiment [9]; “good and good activity and good inhibitory activity” in [10].
